Results as given in ChEMBL document CHEMBL1131819, “Human chymase inhibitors based on the 1,2,5-thiadiazolidin-3-one 1,1 dioxide scaffold” (Bioorg Med Chem Lett, 1999).
Activity calls are given as the source filed them. The rule behind the calls is not given here.

Tests used:
[1] = biological target: T1, Cathepsin G (Homo sapiens) (UniProt P08311); experiment: Second order rate constant for the inhibition of leukocyte Cathepsin G (Cat G).
T1 sequence (whole entry): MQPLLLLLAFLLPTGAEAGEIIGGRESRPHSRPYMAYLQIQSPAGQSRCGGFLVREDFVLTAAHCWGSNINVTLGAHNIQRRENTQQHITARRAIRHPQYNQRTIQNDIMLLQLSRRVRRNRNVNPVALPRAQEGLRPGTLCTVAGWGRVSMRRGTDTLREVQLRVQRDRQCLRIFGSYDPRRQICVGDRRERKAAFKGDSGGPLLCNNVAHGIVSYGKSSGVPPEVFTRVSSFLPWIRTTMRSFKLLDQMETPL

[2] = biological target: T2, Chymase (Homo sapiens) (UniProt P23946); experiment: Second order rate constant for the inhibition of human skin chymase.
T2 sequence (whole entry): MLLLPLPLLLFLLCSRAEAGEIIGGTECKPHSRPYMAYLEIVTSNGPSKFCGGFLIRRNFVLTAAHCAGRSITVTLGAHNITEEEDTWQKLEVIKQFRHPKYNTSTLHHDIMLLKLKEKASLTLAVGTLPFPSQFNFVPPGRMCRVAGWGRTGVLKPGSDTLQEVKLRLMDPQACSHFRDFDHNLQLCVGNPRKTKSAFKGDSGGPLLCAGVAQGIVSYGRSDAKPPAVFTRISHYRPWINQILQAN

Row | SMILES | K inact/Ki [1] [M⁻¹ s⁻¹] | K inact/Ki [2]
1 | O=C(O)CC(=O)OCN1C(=O)C(Cc2ccccc2)N(Cc2ccccc2)S1(=O)=O (configuration not stated) | 22700 | 45700 M⁻¹ s⁻¹
2 | CC(=O)OCN1C(=O)C(Cc2ccccc2)N(Cc2ccccc2)S1(=O)=O (configuration not stated) | 10600 | 21800 M⁻¹ s⁻¹
3 | CS(=O)(=O)CN1C(=O)C(Cc2ccccc2)N(Cc2ccccc2)S1(=O)=O (configuration not stated) | 8500 | 4600 M⁻¹ s⁻¹
4 | Nc1ccc2nc(SCN3C(=O)C(Cc4ccccc4)N(Cc4ccccc4)S3(=O)=O)sc2c1 (configuration not stated) | 15700 | 14700 M⁻¹ s⁻¹
5 | O=C(OCN1C(=O)C(Cc2ccccc2)N(Cc2ccccc2)S1(=O)=O)C(O)c1ccccc1 (configuration not stated) | 12300 | 39900 M⁻¹ s⁻¹
6 | O=C(O)CCS(=O)(=O)CN1C(=O)C(Cc2ccccc2)N(Cc2ccccc2)S1(=O)=O (configuration not stated) | 17400 | 23400 M⁻¹ s⁻¹
7 | O=C1C(Cc2ccccc2)N(Cc2ccccc2)S(=O)(=O)N1CSc1nnc(-c2ccccc2)o1 (configuration not stated) | 490 | 5090 M⁻¹ s⁻¹
8 | CC(O)C(=O)OCN1C(=O)C(Cc2ccccc2)N(Cc2ccccc2)S1(=O)=O (configuration not stated) | 12700 | 38500 M⁻¹ s⁻¹
9 | O=C(O)c1cccc(S(=O)(=O)CN2C(=O)C(Cc3ccccc3)N(Cc3ccccc3)S2(=O)=O)c1 (configuration not stated) | 20700 | 13500 M⁻¹ s⁻¹
10 | O=C(O)CS(=O)(=O)CN1C(=O)C(Cc2ccccc2)N(Cc2ccccc2)S1(=O)=O (configuration not stated) | 25200 | 10800 M⁻¹ s⁻¹
11 | O=C1C(Cc2ccccc2)N(Cc2ccccc2)S(=O)(=O)N1CSc1nc2ccccc2o1 (configuration not stated) | 17100 | 5430 M⁻¹ s⁻¹
12 | O=C(O)c1ccccc1S(=O)(=O)CN1C(=O)C(Cc2ccccc2)N(Cc2ccccc2)S1(=O)=O (configuration not stated) | 350 | inactive
13 | O=C1C(Cc2ccccc2)N(Cc2ccccc2)S(=O)(=O)N1CS(=O)(=O)c1ccccc1 (configuration not stated) | 11200 | 12500 M⁻¹ s⁻¹
14 | O=C(CO)OCN1C(=O)C(Cc2ccccc2)N(Cc2ccccc2)S1(=O)=O (configuration not stated) | 12800 | 30500 M⁻¹ s⁻¹
15 | O=C(O)c1ccc(S(=O)(=O)CN2C(=O)C(Cc3ccccc3)N(Cc3ccccc3)S2(=O)=O)cc1 (configuration not stated) | 66700 | 186000 M⁻¹ s⁻¹
16 | CN1C(Cc2ccccc2)C(=O)N(CSc2nc3ccccc3o2)S1(=O)=O (configuration not stated) | 430 | 6250 M⁻¹ s⁻¹
